pIC50: −log10 of the molar value.
Molecular target: T1, ATX (Homo sapiens, UniProt Q13822)
T1 construct: conditioned serum-free medium (CCM) from MDA-MB-435 cells as the source of ATX; endogenous in cells; host or cells: MDA-MB-435 cells (about 10x concentrated conditioned serum-free medium)
Assay: ATX inhibition assay (FS-3 substrate)
Assay type: biochemical
Conditions: for % Response: preliminary screen, FS-3 hydrolysis at one hour, normalized to vehicle control, mean±S.D., same values given at 10 μM in Table 5
Experimental: ATX inhibition was assayed using the substrate FS-3 (Echelon Biosciences, Inc., Salt Lake City, Utah, USA). The FS-3 assay used ˜10 times concentrated conditioned serum-free medium (CCM) from MDA-MB-435 cells as the source of ATX, while CCM comprised one-third of the total volume. The final volume for FS-3 was comprised of the substrate at varying concentrations and 30 μM charcoal-stripped fatty acid free BSA (Sigma Aldrich) in assay buffer (1 mM each CaCl2 and MgCl2, 5 mM KCl, 140 mM NaCl, 50 mM Tris pH 8.0).
All assays were performed in 96-well plates with data read at 1 minute intervals by a Synergy2 system (BioTek, Winooski, Vt.). The fluorescence produced upon the hydrolysis of FS-3 was monitored using an excitation wavelength of 485 nm and an emission wavelength of 528 nm at 37° C. (Ferguson et al., 2006). […] All readings were normalized to vehicle control after subtraction of fluorescence in the absence of CCM. Data are shown as the mean±S.D. of at least three wells.

[1] = Calculated IC50 data for the 30 active compounds, FS-3 substrate

Row | SMILES | pIC50 [1] | % Response | % ATX Acitivity (10 μM) (10 μM compound, FS-3 substrate) | pIC50 (FS-3 substrate)
1 | Nc1c(N=Nc2ccc([N+](=O)[O-])cc2)c(S(=O)(=O)O)cc2cc(S(=O)(=O)O)c(N=Nc3ccc(-c4ccc(N=Nc5ccc(O)cc5)cc4)cc3)c(O)c12.[Na+] [compound 7234] | 5.15 | 49 ± 6.1% |  | 
2 | Cc1ccc(Nc2cccc3c2C(=O)c2cccc(Nc4ccc(C)c(S(=O)(=O)O)c4)c2C3=O)cc1S(=O)(=O)O [compound 7804] |  | 96 ± 6.4% |  | 
3 | CC(=O)Nc1ccc(C=Cc2ccc(NC(=O)Nc3ccc(C=Cc4ccc(NC(C)=O)cc4S(=O)(=O)O)c(S(=O)(=O)O)c3)cc2S(=O)(=O)O)c(S(=O)(=O)O)c1 [compound 34928] |  | 51 ± 6.5% |  | 
4 | O=C(Nc1ccc2c(O)c(N=Nc3ccccc3)c(S(=O)(=O)[O-])cc2c1)Nc1ccc2c(O)c(N=Nc3ccccc3)c(S(=O)(=O)[O-])cc2c1.[Na+].[Na+] [compound 16223] |  | 77 ± 9.8% |  | 
5 | O=C(Nc1ccc2cc(S(=O)(=O)O)ccc2c1)c1ccc(N=Nc2c(S(=O)(=O)O)cc3cc(S(=O)(=O)O)cc(NC(=O)c4ccccc4)c3c2O)cc1.[Na+] [compound 45620] | 5.05 | 28 ± 3.7% |  | 
6 | Cc1c(N)cc(S(=O)(=O)O)cc1NC(=O)c1cccc([N+](=O)[O-])c1 [compound 5000] |  | 100 ± 5.5% |  | 
7 | O=C(Nc1ccc(C(=O)Nc2ccc3c(O)cc(S(=O)(=O)O)cc3c2)cc1)c1ccccc1.[Na+] [compound 37215] |  | 79 ± 3.7% |  | 
8 | CN(C)C1C(=O)C(C(=O)NCNc2cccc(C(=O)O)c2C(=O)O)=C(O)C2(O)C(=O)C3=C(O)c4c(O)cccc4[C@](C)(O)[C@@H]3C[C@H]12 (some centres unmarked) [compound 43891] | 4.86 | 32 ± 9.1% |  | 
9 | COc1ccc(/C=N/N=C(N)/C(N)=N/N=C/c2ccc(OC)c(S(=O)(=O)O)c2)cc1S(=O)(=O)O.[Na+] [compound 46954] |  | 92 ± 3.9% |  | 
10 | Cc1cc(C(O)(c2ccc(Nc3ccccc3)cc2)c2ccc(Nc3ccc(S(=O)(=O)O)cc3)cc2)ccc1N.[Na+] (centres unmarked) [compound 5014] | 5.90 | 39 ± 4.3% |  | 
11 | Cc1cc(-c2ccc(N=Nc3c(N)c(S(=O)(=O)O)cc4cc(S(=O)(=O)O)ccc34)c(C)c2)ccc1N=Nc1cc(S(=O)(=O)O)c2ccccc2c1N [compound 7815] | 4.87 | 32 ± 5.5% |  | 
12 | Cc1ccc(Nc2ccc(Nc3ccc(C)cc3S(=O)(=O)[O-])c3c2C(=O)c2ccccc2C3=O)c(S(=O)(=O)[O-])c1.[Na+].[Na+] [compound 7795] |  | 99 ± 5.0% |  | 
13 | O=C(O)c1ccc2c(c1Nc1ccc(-c3ccc(Nc4c(C(=O)O)ccc5c4C(=O)c4ccccc4C5=O)cc3)cc1)C(=O)c1ccccc1C2=O [compound 7581] |  | 70 ± 4.8% |  | 
14 | CC1=NN(c2ccc(/C=C/c3ccc(NC(=O)Nc4ccc(/C=C/c5ccc(N6N=C(C)C(N=Nc7ccccc7C(=O)O)C6=O)cc5S(=O)(=O)O)c(S(=O)(=O)O)c4)cc3S(=O)(=O)O)c(S(=O)(=O)O)c2)C(=O)C1N=Nc1ccccc1C(=O)O.[Na+] (centres unmarked) [compound 34937] |  | 87 ± 3.1% |  | 
15 | NC(=N\N=C/c1ccc(O)c(S(=O)(=O)O)c1)/C(N)=N\N=C/c1ccc(O)c(S(=O)(=O)O)c1.[Na+] [compound 47470] |  | 90 ± 3.2% |  | 
16 | CC(C)(C)OC(=O)NC(CC(Cc1ccccc1)C(=O)O)C(=O)NC(CC(Cc1ccccc1)C(=O)O)C(=O)NC(CC(Cc1ccccc1)C(=O)O)C(=O)NCC(=O)Oc1ccc([N+](=O)[O-])cc1 (centres unmarked) [NSC 341348] |  |  | 43 ± 2.8% | 5.60
17 | O=C1C(c2[nH]c3ccc(S(=O)(=O)O)cc3c2O)=Nc2ccc(S(=O)(=O)O)cc21 [compound 8646] |  | 88 ± 9.2% |  | 

Continued, values first:

Row | pIC50 [1] | % Response | % ATX Acitivity (10 μM) (10 μM compound, FS-3 substrate) | pIC50 (FS-3 substrate) | SMILES
18 |  | 73 ± 3.0% |  |  | Cc1cc(C)c(N=Nc2cc(C)c(N=Nc3c(S(=O)(=O)[O-])cc4cc(Nc5ccccc5)ccc4c3O)cc2C)c(S(=O)(=O)[O-])c1.[Na+].[Na+] [compound 47747]
19 | 5.39 | 32 ± 2.7% |  |  | Nc1ccc(N=Nc2ccc(-c3ccc(N=Nc4c(S(=O)(=O)O)cc5cc(S(=O)(=O)O)c(N=Nc6ccc([N+](=O)[O-])cc6)c(N)c5c4O)cc3)cc2)c2cc(S(=O)(=O)O)ccc12.Nc1ccc(N=Nc2ccc(-c3ccc(N=Nc4c(S(=O)(=O)O)cc5cc(S(=O)(=O)O)c(N=Nc6ccc([N+](=O)[O-])cc6)c(N)c5c4O)cc3)cc2)c2ccc(S(=O)(=O)O)cc12 [compound 77520]
20 | 4.93 | 29 ± 3.6% |  |  | Cc1ccccc1N=Nc1c(S(=O)(=O)[O-])cc2cc(NC(=O)Nc3ccc4c(O)c(N=Nc5ccc6cc(S(=O)(=O)[O-])ccc6c5)c(S(=O)(=O)[O-])cc4c3)ccc2c1O.[Na+].[Na+].[Na+] [compound 58057]
21 |  | 66 ± 4.4% |  |  | O=C(Nc1ccc(Sc2ccc(N=Nc3c(O)c(S(=O)(=O)O)cc4cc(S(=O)(=O)O)ccc34)cc2)cc1)c1ccc(N=Nc2c(O)c(S(=O)(=O)O)cc3cc(S(=O)(=O)O)ccc23)cc1 [compound 65860]
22 |  | 88 ± 5.3% |  |  | Nc1ccc(C(=O)Nc2ccc(NC(=O)Nc3ccc(NC(=O)c4ccc(N)cc4)c(S(=O)(=O)O)c3)cc2S(=O)(=O)O)cc1.[Na+] [compound 71960]
23 |  | 74 ± 5.5% |  |  | Cc1cc(N)ccc1N=Nc1ccc(Sc2ccc(N=Nc3c(S(=O)(=O)O)cc4cc(S(=O)(=O)O)c(N=Nc5ccc([N+](=O)[O-])cc5)c(N)c4c3O)cc2)cc1.[Na+] [compound 65571]
24 | 4.42 | 47 ± 3.7% |  |  | COc1cc(N=Nc2cc(S(=O)(=O)[O-])cc3cc(S(=O)(=O)[O-])cc(O)c23)c(C)cc1N=Nc1c(S(=O)(=O)[O-])cc2cc(Nc3ccccc3)ccc2c1O.[Na+].[Na+].[Na+] [compound 47755]
25 | 5.60 | 43 ± 2.8% |  |  | CC(C)(C)OC(=O)NC(CC(Cc1ccccc1)C(=O)O)C(=O)NC(CC(Cc1ccccc1)C(=O)O)C(=O)NC(CC(Cc1ccccc1)C(=O)O)C(=O)NCC(=O)Oc1ccc([N+](=O)[O-])cc1 (centres unmarked) [compound 341348]
26 | 4.64 | 46 ± 6.7% |  |  | Nc1c(N=Nc2ccc([N+](=O)[O-])cc2)c(S(=O)(=O)O)cc2cc(S(=O)(=O)O)c(N=Nc3ccc(-c4ccc(N=Nc5c(S(=O)(=O)O)cc6cc(S(=O)(=O)O)c(N=Nc7ccc([N+](=O)[O-])cc7)c(N)c6c5O)cc4)cc3)c(O)c12.[Na+] [compound 65869]
27 |  | 98 ± 5.5% |  |  | COc1ccc(/C=N\NC(=O)N/N=C/c2ccc(OC)c(S(=O)(=O)O)c2)cc1S(=O)(=O)O.[Na+] [compound 48775]
28 |  | 62 ± 2.5% |  |  | O=C(/C=C\c1ccc(NCc2ccc(C(=O)O)cc2)cc1)CCl [compound 106024]
29 | 4.72 | 39 ± 3.8% |  |  | O=C(Nc1ccc2c(O)c(N=Nc3ccccc3)c(S(=O)(=O)O)cc2c1)Nc1ccc2c(O)c(N=Nc3ccc4cc(S(=O)(=O)O)ccc4c3)c(S(=O)(=O)O)cc2c1.[H-].[Na+] [compound 65573]
30 |  | 61 ± 3.7% |  |  | Nc1ccc(C(=O)Nc2cccc(C(=O)Nc3ccc4c(O)c(N=Nc5ccc(N=Nc6ccc(S(=O)(=O)[O-])cc6)cc5)c(S(=O)(=O)[O-])cc4c3)c2)cc1.[Na+].[Na+] [compound 47767]
31 | 5.10 | 24 ± 2.9% |  |  | O=C(O)c1ccc(C(=O)NCCCN(CCCCN(CCCNC(=O)c2ccc(C(=O)O)c(O)c2O)C(=O)c2ccc(C(=O)O)c(O)c2O)C(=O)c2ccc(C(=O)O)c(O)c2O)c(O)c1O.[Na+] [compound 338310]

From patent publication US8343934B2, “Diverse lead compound autotaxin inhibitors” (University of Memphis, priority 2009, dated 2013)
